“And” between values parts separate entries of the source, which are not always exact repeats. Equal values may be shown once. Marks after values point to notes of the source that are not given here.
Legend:
[1] = Compatibility of active ingredient with HPMC and gelatin capsule shells (assay, related substances); type: physicochemical; settings: for Assay (%): single vials
Experimental: Binary mixtures of the active ingredient with the capsules shells were made as follows: • An active ingredient doping solution (active ingredient dissolved in ethanol) was made ([…]). A 100 μL aliquot of this doping was used to ‘spike’ the 10 vials of each capsule shell type as described in Table 5. The nominal quantity of active ingredient per vial was therefore 50 μg. • No doping solution was added to the three control vials of the excipient. • The active vials were left open overnight to evaporate all the ethanol, before closing the vials. • Both the active and placebo control vials were placed on stability for up to 28 days at 25° C. and 50° C.

[2] = in vivo; cited from earlier work
[3] = HPMC capsule shell, 50° C., 14 days
[4] = HPMC capsule shell, 50° C., 14 days, listed as active ingredient
[5] = HPMC capsule shell, 50° C., 28 days
[6] = HPMC capsule shell, 50° C., 28 days, listed as active ingredient
[7] = HPMC capsule shell, initial, listed as active ingredient
[8] = Hard Gelatin capsule shell, 25° C., 14 days, listed as active ingredient
[9] = Hard Gelatin capsule shell, 25° C., 28 days, listed as active ingredient
[10] = Hard Gelatin capsule shell, 50° C., 14 days
[11] = Hard Gelatin capsule shell, 50° C., 14 days, listed as active ingredient
[12] = Hard Gelatin capsule shell, 50° C., 28 days
[13] = Hard Gelatin capsule shell, 50° C., 28 days, listed as active ingredient
[14] = Hard Gelatin capsule shell, initial
[15] = Hard Gelatin capsule shell, initial, listed as active ingredient

## CCS(=O)(=O)Nc1ccc2c(c1)nc(C(C)(C)C)n2CC1CCC(F)(F)CC1 [Compound I, N-(2-(tert-butyl)-1-((4,4-difluorocyclohexyl)methyl)-1H-benzimidazol-5-yl)ethanesulfonamide]
[1]; HPMC capsule shell, 25° C., 28 days, listed as active ingredient
  Assay (%): 99.3% and 99.0%
[1]; [3]
  Assay (%), mean: 98.8%
  Related substance RRT 0.97: 0.67* %
  Related substance RRT 1.04: 0.07%
  Related substance RRT 1.10: 0.09%
  Related substance RRT 1.36: 0.12%
[1]; [4]
  Related substance RRT 0.92: 0.07% and <0.05%
  Related substance RRT 0.98: 0.30% and 0.29%
  Related substance RRT 1.35: 0.13% and 0.12%
  Related substances total: 0.79% and 1.37%
  Assay (%): 98.9% and 98.7%
[1]; [5]
  Assay (%), mean: 98.9%
  Related substance RRT 0.92: 0.07%
  Related substance RRT 1.35: 0.12%
[1]; [6]
  Related substance RRT 0.98: 0.31% and 0.32%
  Related substance RRT 1.04: 0.07% and 0.09%
  Related substance RRT 1.10: 0.09% and 0.10%
  Related substance RRT 1.36: 0.12% and 0.13%
  Related substances total: 0.79% and 0.83%
  Assay (%): 98.8% and 98.9%
[1]; HPMC capsule shell, initial
  Assay (%), mean: 97.8%
  Related substance RRT 1.04: 0.07%
  Related substance RRT 1.35: 0.13%
  Related substance RRT 1.36: 0.13%
[1]; [7]
  Related substance RRT 0.92: 0.08% and 0.07%
  Related substance RRT 0.98: 0.3% and 0.31%
  Related substance RRT 1.10: 0.09% and 0.10%
  Related substances total: 0.81% and 0.82%
  Assay (%): 96.5% and 99.0%
[1]; HPMC or gelatin capsules, all conditions and timepoints
  Degradation of the active ingredient (from % assay): no degradation
[1]; Hard Gelatin capsule shell, 25° C., 14 days
  Related substance RRT 1.35: 0.07%
[1]; [8]
  Related substance RRT 0.92: 0.05% and <0.05%
  Related substance RRT 0.98: 0.22% and 0.18%
  Related substance RRT 1.04: 0.05% and <0.05%
  Related substance RRT 1.10: 0.10% and 0.09%
  Related substance RRT 1.36: 0.07% and 0.08%
  Related substances total: 0.56% and 0.42%
[1]; Hard Gelatin capsule shell, 25° C., 28 days
  Related substance RRT 1.04: <0.05%
[1]; [9]
  Related substance RRT 0.92: 0.05% and <0.05%
  Related substance RRT 0.98: 0.18% and 0.14%
  Related substance RRT 1.10: 0.08% and 0.09%
  Related substance RRT 1.35: 0.07% and 0.06%
  Related substance RRT 1.36: 0.08% and 0.07%
  Related substances total: 0.47% and 0.36%
[1]; [10]
  Related substance RRT 0.92: <0.05%
  Related substance RRT 1.04: <0.05%
  Related substance RRT 1.10: 0.09%
  Related substance RRT 1.35: 0.06%
  Related substance RRT 1.36: 0.07%
[1]; [11]
  Related substance RRT 0.98: 0.14% and 0.12%
  Related substances total: 0.37% and 0.34%
[1]; [12]
  Related substance RRT 0.92: <0.05%
  Related substance RRT 1.04: <0.05%
  Related substance RRT 1.35: 0.06%
  Related substance RRT 1.36: 0.07%
  Related substances total: 0.33%
[1]; [13]
  Related substance RRT 0.98: 0.11% and 0.09%
  Related substance RRT 1.10: 0.09% and 0.11%
[1]; [14]
  Related substance RRT 1.04: 0.05%
  Related substance RRT 1.10: 0.10%
  Related substance RRT 1.36: 0.08%
[1]; [15]
  Related substance RRT 0.92: 0.06% and 0.05%
  Related substance RRT 0.98: 0.26% and 0.24%
  Related substance RRT 1.35: 0.08% and 0.07%
  Related substances total: 0.62% and 0.58%
[1]; both capsule types, all incubation times and temperatures
  Total impurities: below 1%
[2]
  CNS-psychoactive effects: does not cause CNS-psychoactive effects
  Effect on appetite: stimulate appetite in a dose-dependent manner
